≈ marks a conversion by molar mass, not a printed value. Where “and” joins values, the source holds several entries; their conditions need not be identical. Identical values can stand only once. Entries after “also recorded” stand apart in the source; their conditions may differ. Counter-ions that a name gives are not always drawn. Like-named read-outs stand apart in the source and are kept apart here.
How the values were obtained:
ADAM9 = ADAM9 (Homo sapiens (Human), UniProt Q13443); test: Enzyme inhibition studies, ADAM9; format: biochemical
ADAM10 = ADAM10 (Homo sapiens (Human), UniProt O14672); test: Enzyme inhibition studies, ADAM10; format: biochemical
MMP-2 = MMP-2 (Homo sapiens (Human), UniProt P08253); test: Enzyme inhibition studies, MMP-2; format: biochemical; conditions: for Ki: slow-binding, Ki calculated from koff/kon, read-out: Ki
MMP-9 = MMP-9 (Homo sapiens (Human), UniProt P14780); test: Enzyme inhibition studies, MMP-9 catalytic domain; format: biochemical; conditions: for residence time: reciprocal of koff
MMP-14 = MMP-14 (Homo sapiens (Human), UniProt P50281); test: Enzyme inhibition studies, MMP-14 catalytic domain; format: biochemical
MMP-1 = MMP-1 (Homo sapiens (Human), UniProt P03956); test: Enzyme inhibition studies, MMP-1 catalytic domain; format: biochemical
MMP-3 = MMP-3 (Homo sapiens (Human), UniProt P08254); test: Enzyme inhibition studies, MMP-3 catalytic domain; format: biochemical; conditions: at 100 μM
MMP-7 = MMP-7 (Homo sapiens (Human), UniProt P09237); test: Enzyme inhibition studies, MMP-7; format: biochemical
MMP-8 = MMP-8 (Homo sapiens (Human), UniProt P22894); test: Enzyme inhibition studies, MMP-8 catalytic domain; format: biochemical
[1] = Stability in buffers of the kinetic assays; format: physicochemical
Text: Human recombinant active MMP-2 and MMP-7, and the catalytic domains of MMP-3 and MMP-14/MT1-MMP were purchased from EMD Chemicals, Inc. (San Diego, Calif., USA); human recombinant catalytic domains of MMP-1, MMP-8, and MMP-9 were purchased from Enzo Life Sciences, Inc. (Farmingdale, N.Y., USA); human recombinant active ADAM9 and ADAM10 were purchased from R&D Systems (Minneapolis, Minn., USA). Fluorogenic substrates MOCAc-Pro-Leu-Gly-Leu-A2pr(Dnp)-Ala-Arg-NH2 (for MMP-2, MMP-7, MMP-9 and MMP-14) and MOCAc-Arg-Pro-Lys-Pro-Val-Glu-Nva-Trp-Arg-Lys(Dnp)-NH2 (for MMP-3) were purchased from Peptides International (Louisville, Ky., USA); Mca-KPLGL-Dpa-AR-NH2 (for MMP-1, MMP-8 and ADAM10) and Mca-PLAQAV-Dpa-RSSSR-NH2 (for ADAM9) were purchased from R&D Systems (Minneapolis, Minn., USA). […] Inhibitor stock solutions (10 mM) were prepared fresh in DMSO before enzyme inhibition assays. We followed the same methodology for enzyme inhibition studies as reported by Page-McCaw et al. (Nat. Rev. Mol. Cell Biol. 2007, 8, 221-233). Enzyme inhibition studies were carried out using a Cary Eclipse fluorescence spectrophotometer (Varian, Walnut Creek, Calif., USA). Compounds 4, 5, 6 and 7 were stable in the buffers that were used in the kinetic assays.

[2] = mouse, in vivo, iv, 5 mg/kg
Experimental: (§1) Mice (male CD-1, 6-7 weeks old, ˜30 g body weight, specific pathogen free) were purchased from Charles River Laboratories, Inc. (Wilmington, Mass., USA).
(§2) Samples were analyzed by ultraperformance liquid chromatography (UPLC)/(+)electrospray ionization (ESI)-multiple-reaction monitoring (MRM) with a reversed phase C18 column (Acclaim® RSLC 120 C18, 2.2 μm, 120 Å, 2.1×100 mm, Dionex, Sunnyvale, Calif., USA).
(§3) Quantification of the compounds in plasma and brain was obtained using peak-area ratios of the compounds to the internal standard, and the linear-regression parameters obtained from the calibration curves.

in vivo = conditions: male, CD-1, mouse, iv, 5 mg/kg
Experimental: as §1, §2, §3

physchem = conditions: water, thermodynamic from solid
[3] = Pharmacokinetics and brain distribution after single iv dose; conditions: for crossing of the blood-brain barrier: in words
Experimental: as §1, §2, §3

[4] = catalytic domain, slow-binding, Ki from koff/kon, read-out: Ki
[5] = 2 min after 5 mg/kg single iv, mice
[6] = 5 min after 5 mg/kg single iv, mice
[7] = 10 min after 5 mg/kg single iv, mice
[8] = 30 min after 5 mg/kg single iv, mice
[9] = 60 min after 5 mg/kg single iv, mice
[10] = 90 min after 5 mg/kg single iv, mice
[11] = male, CD-1, mouse, in vivo, 5 mg/kg
[12] = plasma, 5 mg/kg single iv, mice

MMP-7, sequence (P09237 95-267): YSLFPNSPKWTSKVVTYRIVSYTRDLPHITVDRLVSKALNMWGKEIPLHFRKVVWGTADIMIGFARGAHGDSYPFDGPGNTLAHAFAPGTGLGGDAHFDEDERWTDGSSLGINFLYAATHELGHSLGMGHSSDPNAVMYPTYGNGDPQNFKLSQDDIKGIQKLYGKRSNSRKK
MMP-3, sequence (P08254 100-272): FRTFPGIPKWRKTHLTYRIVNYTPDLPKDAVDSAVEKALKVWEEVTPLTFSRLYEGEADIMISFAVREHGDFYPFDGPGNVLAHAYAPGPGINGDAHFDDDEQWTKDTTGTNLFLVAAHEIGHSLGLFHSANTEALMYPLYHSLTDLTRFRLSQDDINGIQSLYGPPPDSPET
MMP-8, sequence (P22894 100-262): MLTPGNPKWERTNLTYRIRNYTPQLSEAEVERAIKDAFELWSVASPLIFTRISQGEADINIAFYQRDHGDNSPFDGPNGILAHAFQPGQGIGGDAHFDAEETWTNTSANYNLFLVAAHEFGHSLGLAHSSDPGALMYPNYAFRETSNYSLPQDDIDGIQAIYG
ADAM10, sequence (O14672 214-672): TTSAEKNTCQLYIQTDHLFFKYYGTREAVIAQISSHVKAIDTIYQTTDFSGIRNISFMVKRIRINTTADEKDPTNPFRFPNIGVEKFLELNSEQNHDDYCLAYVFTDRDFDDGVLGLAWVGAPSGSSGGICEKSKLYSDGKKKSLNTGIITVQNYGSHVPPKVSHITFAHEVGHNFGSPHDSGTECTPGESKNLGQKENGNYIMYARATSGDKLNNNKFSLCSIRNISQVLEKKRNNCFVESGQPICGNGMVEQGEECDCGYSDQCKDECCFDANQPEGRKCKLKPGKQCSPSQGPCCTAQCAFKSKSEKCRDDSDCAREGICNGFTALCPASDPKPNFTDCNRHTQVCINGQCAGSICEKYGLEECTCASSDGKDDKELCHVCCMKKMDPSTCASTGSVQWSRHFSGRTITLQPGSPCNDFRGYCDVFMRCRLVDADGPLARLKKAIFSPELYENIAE
MMP-1, sequence (P03956 98-276): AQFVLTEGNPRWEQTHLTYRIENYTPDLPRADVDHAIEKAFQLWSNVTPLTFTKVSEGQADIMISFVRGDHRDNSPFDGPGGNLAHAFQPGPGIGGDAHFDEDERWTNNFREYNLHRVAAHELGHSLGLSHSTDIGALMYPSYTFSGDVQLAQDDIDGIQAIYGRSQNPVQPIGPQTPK
ADAM9, sequence (Q13443 206-697): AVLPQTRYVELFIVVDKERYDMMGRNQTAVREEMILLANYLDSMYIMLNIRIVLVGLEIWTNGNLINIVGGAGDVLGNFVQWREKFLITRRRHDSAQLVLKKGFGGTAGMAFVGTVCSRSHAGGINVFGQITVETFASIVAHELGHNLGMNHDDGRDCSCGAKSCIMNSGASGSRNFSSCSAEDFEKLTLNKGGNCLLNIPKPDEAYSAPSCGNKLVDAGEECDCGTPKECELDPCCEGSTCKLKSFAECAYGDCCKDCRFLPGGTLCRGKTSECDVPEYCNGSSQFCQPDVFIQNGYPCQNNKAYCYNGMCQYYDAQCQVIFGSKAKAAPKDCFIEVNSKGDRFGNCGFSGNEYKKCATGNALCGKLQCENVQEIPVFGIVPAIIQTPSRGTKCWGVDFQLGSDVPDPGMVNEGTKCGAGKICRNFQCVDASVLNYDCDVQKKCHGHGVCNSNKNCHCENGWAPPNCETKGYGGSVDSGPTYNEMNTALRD
MMP-2, sequence (P08253 110-660): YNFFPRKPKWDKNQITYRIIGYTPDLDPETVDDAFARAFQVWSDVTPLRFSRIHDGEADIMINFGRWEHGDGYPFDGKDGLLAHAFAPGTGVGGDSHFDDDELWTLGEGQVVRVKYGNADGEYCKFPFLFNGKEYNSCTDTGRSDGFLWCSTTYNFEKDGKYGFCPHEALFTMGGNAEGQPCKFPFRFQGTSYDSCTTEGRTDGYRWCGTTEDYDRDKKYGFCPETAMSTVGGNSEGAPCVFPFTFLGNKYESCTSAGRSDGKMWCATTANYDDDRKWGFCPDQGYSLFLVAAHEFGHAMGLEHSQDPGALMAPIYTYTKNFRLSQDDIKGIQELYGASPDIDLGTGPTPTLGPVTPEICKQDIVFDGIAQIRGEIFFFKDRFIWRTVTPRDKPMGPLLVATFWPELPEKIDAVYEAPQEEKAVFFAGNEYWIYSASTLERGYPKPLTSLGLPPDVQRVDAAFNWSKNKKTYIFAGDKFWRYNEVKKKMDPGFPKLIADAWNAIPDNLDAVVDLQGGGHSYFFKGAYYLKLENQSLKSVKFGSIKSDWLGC
MMP-9, sequence (P14780 107-444): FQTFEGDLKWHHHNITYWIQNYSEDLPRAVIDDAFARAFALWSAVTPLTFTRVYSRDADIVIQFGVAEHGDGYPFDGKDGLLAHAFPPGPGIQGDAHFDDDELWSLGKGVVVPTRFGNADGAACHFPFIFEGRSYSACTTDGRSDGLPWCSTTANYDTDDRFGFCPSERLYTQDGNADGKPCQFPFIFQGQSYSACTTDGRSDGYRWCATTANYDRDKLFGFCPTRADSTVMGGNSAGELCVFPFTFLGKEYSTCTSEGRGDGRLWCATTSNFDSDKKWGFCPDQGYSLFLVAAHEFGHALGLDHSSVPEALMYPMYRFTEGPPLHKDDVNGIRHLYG

With `O=S(=O)(CC1CS1)c1ccc(Oc2ccccc2)cc1` (stereo not shown) [Compound 1, reference compound] the inhibition at 20 µM (ADAM9; at 20 μM, read-out: Inhibition) was 36% and the inhibition at 20 µM (ADAM10; at 20 μM, read-out: Inhibition) was 34%.

Work on `NCc1nc(-c2ccc(Oc3ccc(S(=O)(=O)CC4CS4)cc3)cc2)no1` (stereo not shown) [Compound 4, (3-(4-(4-((Thiiran-2-ylmethyl)sulfonyl)phenoxy)phenyl)-1,2,4-oxadiazol-5-yl)methanamine.HCl salt] yielded a kon (MMP-2) of 521 ± 22 M⁻¹ s⁻¹, a koff (MMP-2; read-out: 10^3 koff) of 0.33 ± 0.027 s⁻¹ and a residence time (MMP-2; reciprocal of koff) of 50.5 ± 4.1 min. For the same compound, the Ki (MMP-2) was 630 ± 60 nM, the kon (MMP-9) was 32 ± 2.3 M⁻¹ s⁻¹ and the Ki (MMP-9; [4]) was 34 µM. It also gave a koff (MMP-9; read-out: 10^3 koff) of 1.1 ± 0.03 s⁻¹, a residence time (MMP-9) of 15.2 ± 0.4 min and a residence time (MMP-9; read-out: residence time) of 15.2 to 47.4 min. The kon (MMP-14) was 121 ± 11 M⁻¹ s⁻¹, the Ki (MMP-14; [4]) was 9.4 µM and the koff (MMP-14; read-out: 10^3 koff) was 1.14 ± 0.09 s⁻¹. It also gave a residence time (MMP-14; reciprocal of koff) of 14.6 ± 1.1 min, an inhibition at 100 µM (MMP-1) of 8% and an inhibition at 100 µM (MMP-3) of 17%. The inhibition at 100 µM (MMP-7) was 8%, the inhibition at 50 µM (MMP-8) was 24% and the inhibition at 100 µM (ADAM9; at 100 μM) was 5%. For the same compound, the inhibition at 100 µM (ADAM10; at 100 μM) was 1%, the “stability in the buffers used in the kinetic assays” value [1] was “stable” and the AUC0-last [2] was 108 pmol·min/mg. The “AUC0-∞” value [2] was 108 pmol·min/mg, the AUCbrain/AUCplasma [2] was 0.138 and the AUC(0-inf) (in vivo) was 13.1 µM·h. It also gave an AUC(0-t) (in vivo) of 13 µM·h, a Vd (in vivo) of 0.0213 L/kg and a clearance (in vivo) of 15.8 mL/min/kg. For the same compound, the solubility (physchem) was 610 µg/mL, the “clearance as % of hepatic blood flow” value ([3]; 5 mg/kg single iv, mice) was 19% and the Brain concentration [3, 5] was 9.76±7.24 pmol/mg tissue. For the same compound, the Plasma concentration [3, 5] was 62.4 ± 61.6 µM, the Brain concentration [3, 6] was 5.98 ± 2.94 pmol/mg tissue and the Plasma concentration [3, 6] was 2.19 ± 0.09 µM. The Brain concentration [3, 7] was 3.27 ± 0.14 pmol/mg tissue, the Plasma concentration [3, 7] was 2.14 ± 1.51 µM and the Brain concentration [3, 8] was 0.249 ± 0.127 pmol/mg tissue. For the same compound, the Plasma concentration [3, 8] was 0.097 ± 0.09 µM and 0.0970 ± 0.0920 µM, the Brain concentration [3, 9] was 0.0253 ± 0.0221 pmol/mg tissue and the Plasma concentration [3, 9] was 0.0863 ± 0.0303 µM. The Brain concentration [3, 10] was 0.00548 ± 0.00476 pmol/mg tissue, the Plasma concentration [3, 10] was 0.0716 ± 0.0500 µM and the Plasma concentration ([3]; 120 min after 5 mg/kg single iv, mice) was 0.0318 ± 0.0311 µM. The Plasma concentration ([3]; 240 min after 5 mg/kg single iv, mice) was 0.0149 ± 0.0129 µM and the “crossing of the blood-brain barrier” value [3] was “cross the blood-brain barrier”.

With `CC(=O)NCc1ccc(Oc2ccc(S(=O)(=O)CC3CS3)cc2)cc1` (stereo not shown) [Compound 6, N-(4-(4-((Thiiran-2-ylmethyl)sulfonyl)phenoxy)benzyl)acetamide] the Ki (MMP-2) was 230 nM and 234 nM, the inhibition at 50 µM (MMP-9; at 50 μM) was 23% and the Inhibition (MMP-9; at 50 μM, listed as ND-378) was “Ki (MMP-9) 23% inhibition at 50 μM”. The inhibition at 50 µM (MMP-14; at 50 μM) was 23%, the Inhibition (MMP-14; at 50 μM, listed as ND-378) was “Ki (MMP-14) 23% inhibition at 50 μM” and the inhibition at 100 µM (MMP-1) was 37%. For the same compound, the Inhibition (MMP-1; at 100 μM, listed as ND-378) was “Ki (MMP-1) 37% inhibition at 100 μM”, the inhibition at 100 µM (MMP-3) was 14% and the Inhibition (MMP-3; listed as ND-378) was “Ki (MMP-3) 14% inhibition at 100 μM”. The inhibition at 100 µM (MMP-7) was 5%, the Inhibition (MMP-7; at 100 μM, listed as ND-378) was “Ki (MMP-7) 4.7% inhibition at 100 μM” and the Ki (MMP-8; Ki, catalytic domain, linear noncompetitive or linear competitive mechanism as footnoted) was 690 nM and 692 nM. For the same compound, the inhibition at 100 µM (ADAM9; at 100 μM) was 31%, the Inhibition (ADAM9; at 100 μM, listed as ND-378) was “Ki (ADAM-9) 31% inhibition at 100 μM” and the inhibition at 100 µM (ADAM10; at 100 μM) was 8%. For the same compound, the Inhibition (ADAM10; at 100 μM, listed as ND-378) was “Ki (ADAM-10) 8% inhibition at 100 μM”, the “stability in the buffers used in the kinetic assays” value [1] was “stable” and the AUC0-last [2] was 66.5 pmol·min/mg. The “AUC0-∞” value [2] was 67.2 pmol·min/mg, the AUC(0-inf) (in vivo) was 7.28 µM·h and the AUC(0-t) (in vivo) was 7.25 µM·h. The Vd (in vivo) was 0.329 L/kg, the clearance (in vivo) was 30.3 mL/min/kg and the solubility (physchem) was 25 µg/mL (≈ 66.2 µM). The “clearance as % of hepatic blood flow” value ([3]; 5 mg/kg single iv, mice) was 35%, the “time brain levels above Ki for MMP-2” value ([3]; 5 mg/kg single iv, mice) was 30 min and the “time plasma levels above Ki for MMP-2” value ([3]; 5 mg/kg single iv, mice) was 30 min. For the same compound, the Brain concentration [3, 5] was 5.98±1.48 pmol/mg tissue, the Plasma concentration [3, 5] was 35.0 ± 7.7 µM and the Brain concentration [3, 6] was 4.90 ± 4.81 pmol/mg tissue. For the same compound, the Brain concentration [3, 7] was 0.954 ± 0.473 pmol/mg tissue, the Brain concentration [3, 8] was 0.231 ± 0.122 pmol/mg tissue and the Brain concentration [3, 9] was 0.0544 ± 0.0539 pmol/mg tissue. For the same compound, the Brain concentration [3, 10] was 0.0263 ± 0.0228 pmol/mg tissue, the t1/2α ([3]; brain, 5 mg/kg single iv, mice) was 2.89 min and the t1/2β ([3]; brain, 5 mg/kg single iv, mice) was 19.1 min. The “crossing of the blood-brain barrier” value ([3]; listed as ND-378) was “cross the blood-brain barrier; also recorded: crosses the BBB”, the concentration at 2 min [3, 11] was 35 ± 7.69 µM and the concentration at 5 min [3, 11] was 20.3 ± 2.8 µM. For the same compound, the concentration at 10 min [3, 11] was 14.1 ± 5 µM, the concentration at 30 min [3, 11] was 1640 ± 480 nM and the concentration at 60 min [3, 11] was 97.9 ± 6.5 nM. The concentration at 90 min [3, 11] was 82.7 ± 26.2 nM, the concentration at 120 min [3, 11] was 29.7 ± 16.8 nM and the concentration at 240 min [3, 11] was 19.3 ± 3.7 nM. For the same compound, the Kp ([3]; male, CD-1, mouse, in vivo, iv, 5 mg/kg) was 0.154, the t1/2α [3, 12] was 6.31 min and the t1/2β [3, 12] was 86.6 min.

Source: US9951035B2, “Selective matrix metalloproteinase inhibitors” (University of Notre Dame du Lac, priority 2014, dated 2018)
